Converted amounts (≈) assume the structure as drawn.
Key:
Format in all cases: cell-based
[1] = system: U-937 (DSM ACC 5), human histiocytic lymphoma; experiment: Growth inhibition, WST-1 reduction in microtiter plates; conditions: 120 h, U-937, incubation period of 5 days, read-out: IC50 K-562/U-937 leukemia
[2] = system: PC-3 (ATCC CRL 1435), human prostate adenocarcinoma; conditions: 120 h, PC-3, incubation period of 5 days, MTT
[3] = system: KB-3.1 (DSM ACC 158), human cervix carcinoma; conditions: KB 3-1, 120 h, KB-3.1, incubation period of 5 days, MTT
[4] = system: SK-OV-3 (ATCC HTB-77), human ovary adenocarcinoma; conditions: 120 h, SK-OV-3, incubation period of 5 days, MTT
[5] = system: A-549 (DSM ACC 107), human lung carcinoma; conditions: A549, 120 h, A-549, incubation period of 5 days, MTT
[6] = system: K-562 (ATCC CCL-243), human chronic myelogenous leukemia; experiment: Growth inhibition, WST-1 reduction in microtiter plates; conditions: K562, 120 h, K-562, incubation period of 5 days, read-out: IC50 K-562/U-937 leukemia

Row | Structure (SMILES) | IC50 [1] [ng/mL] | IC50 [2] [ng/mL] | IC50 [3] [ng/mL] | IC50 [4] [ng/mL] | IC50 [5] [ng/mL] | IC50 [6] [ng/mL]
1 | C=Cc1nc(/C=C(\C)[C@@H]2C[C@@H]3O[C@@H]3CCC[C@H](C)[C@H](O)[C@@H](C)C(=O)C(C)(C)[C@@H](O)CC(=O)O2)cs1 [20-vinyl-epo A, [1S-[1R*,3R*(E),7R*,10S*,11R*,12R*,16S*]]-3-[2-(2-Ethenyl-4-thiazolyl)-1-methylethenyl]-7,11-dihydroxy-8,8,10,12-tetramethyl-4,17-dioxabicyclo[14.1. 0]heptadecane-5,9-dione] | 1.5 (≈ 2.97 nM) | 0.4 (≈ 0.791 nM) | 3 (≈ 5.93 nM) | 1 (≈ 1.98 nM) |  | 
2 | C/C(=C\c1csc(CN)n1)[C@@H]1C[C@@H]2O[C@@H]2CCC[C@H](C)[C@H](O)[C@@H](C)C(=O)C(C)(C)[C@@H](O)CC(=O)O1 [21-amino-epo A] | 3 (≈ 5.9 nM) | 3 (≈ 5.9 nM) | 4 (≈ 7.86 nM) | 4 (≈ 7.86 nM) |  | 
3 | C/C(=C\c1csc(CN)n1)[C@@H]1C[C@@H]2O[C@]2(C)CCC[C@H](C)[C@H](O)[C@@H](C)C(=O)C(C)(C)[C@@H](O)CC(=O)O1 [21-amino-epo B, [1S-[1R*,3R*(E),7R*,10S*,11R*,12R*,16S*]]-3-[2-[2-(Aminomethyl)-4-thiazolyl]-1-methylethenyl]-7,11-dihydroxy-8,8,10,12,16-pentamethyl-4,17-dioxabicyclo[14.1.0]heptadecane-5,9-dione] |  | 1.5 (≈ 2.87 nM) | 0.4 (≈ 0.765 nM) |  |  | 
4 | C/C(=C\c1csc(CN=[N+]=[N-])n1)[C@@H]1C[C@@H]2O[C@]2(C)CCC[C@H](C)[C@H](O)[C@@H](C)C(=O)C(C)(C)[C@@H](O)CC(=O)O1 [21-azido-epo B, [1S-[1R*,3R* (E),7R*, 10S*,11R*,12R*,16S*]]-3-[2-[2-(Azidomethyl)-4-thiazolyl]-1-methylethenyl]-7,11-dihydroxy-8,8,10,12,16-pentamethyl-4,17-dioxabicyclo[14.1. 0]heptadecane-5,9-dione] |  | 0.4 (≈ 0.729 nM) | 0.5 (≈ 0.911 nM) |  |  | 
5 | C/C(=C\c1csc(CCl)n1)[C@@H]1C[C@@H]2O[C@@H]2CCC[C@H](C)[C@H](O)[C@@H](C)C(=O)C(C)(C)[C@@H](O)CC(=O)O1 [21-chloro-epo A] |  |  | 60 (≈ 114 nM) |  | 10 (≈ 18.9 nM) | 12 (≈ 22.7 nM)
